According to patent US20090012085A1, “DOSAGE FORMS AND METHODS OF TREATMENT USING A TYROSINE KINASE INHIBITOR” (priority 2005, published 2009):
Where two headings read alike, the source gives them in different places.

Test: Phase I dose-escalating study, plasma pharmacokinetics in patients with solid tumor
Type: in vivo, human
Conditions: for Tmax: read-out: tmax, mean (% CV); for concentration at 4 h: nominal time 4 h; for concentration at 12 h: nominal time 12 h; for accumulation of the drug with continuous dosing: plasma exposures on Day 28 of dosing, compared to 4/1 schedule
Experimental: Cmax values, or maximum total plasma concentrations, of a compound of formula 1 can be measured according to techniques well known to those skilled in the art. For example, after a compound of formula 1 has been administered to a mammal, blood samples can be taken at fixed time points over a period of time (e.g. 24 hours) and the serum or plasma concentration of compound of formula 1 can be measured using standard analytical techniques known in the art. In vivo determinations Cmax can then be made by plotting the serum or plasma concentration of compound of formula 1 along the ordinate (y-axis) against time along the abscissa (x-axis).
The maleate salt of compound 1 was administered to human patients with solid tumor malignancies not amenable to conventional therapies in a Phase I dose-escalating multicenter study. The types of tumor malignancies included colorectal carcinoma, renal cell carcinoma, esophageal carcinoma, thymus carcinoma, mastocytosis, lung cancer and multiple endocrine neoplasia type II. Patients were treated in cohorts of 6 with escalating QD (once per day) doses of the maleate salt of compound 1 under fasting conditions. Each study cycle of 5 weeks consisted of 4 weeks of treatment followed by 1 week of rest (4/1 schedule), or continuous dosing without any rest period.
Full pharmacokinetic profiles were collected on Cycle 1 Day 1 (C1D1), Cycle 1 Day 28 (C1D28), and Cycle 2 Day 28 (C2D28). Preliminary pharmacokinetic parameters for the first 44 patients, i.e. the first 7 dosing groups, were estimated using nominal collection times and quality-controlled, non-quality assured bioanalytical data. The dosage amounts in Table 1A and Table 1B are free base equivalent amounts.

Cc1[nH]c(/C=C2\C(=O)Nc3ccc(F)cc32)c(C)c1C(=O)NC[C@H](O)CN1CCOCC1 [compound 1, 5-[(Z)-(5-fluoro-2-oxo-1,2-dihydro-3H-indol-3-ylidene)methyl]-N-[(2S)-2-hydroxy-3-morpholin-4-ylpropyl]-2,4-dimethyl-1H-pyrrole-3-carboxamide]
half-life (human, plasma, 200 mg, 200 mg QD (4/1), C1D1 (n = 6), plasma, read-out: t½, mean (% CV) (converted)): 18.8 h
AUC(0-t) (human, plasma, 200 mg, 200 mg QD (4/1), C1D28 (n = 5), plasma, read-out: AUC(0-24), mean (% CV)): 8210 ng·h/mL
concentration at 24 h (human, plasma, 200 mg, 200 mg QD (4/1), C1D28 (n = 5), plasma, read-out: C(trough, 24 h), mean (% CV)): 259 ng/mL
Cmax (human, plasma, 200 mg, 200 mg QD (4/1), C1D28 (n = 5), plasma, read-out: Cmax, mean (% CV)): 561 ng/mL
Tmax (human, plasma, 200 mg, 200 mg QD (4/1), C1D28 (n = 5), plasma): 6.6 h
half-life (human, plasma, 200 mg, 200 mg QD (4/1), C1D28 (n = 5), plasma, read-out: t½, mean (% CV) (converted)): 26.9 h
AUC(0-t) (human, plasma, 200 mg, 200 mg QD (4/1), C2D28 (n = 5), plasma, read-out: AUC(0-24), mean (% CV)): 6270 ng·h/mL
concentration at 24 h (human, plasma, 200 mg, 200 mg QD (4/1), C2D28 (n = 5), plasma, read-out: C(trough, 24 h), mean (% CV)): 211 ng/mL
Cmax (human, plasma, 200 mg, 200 mg QD (4/1), C2D28 (n = 5), plasma, read-out: Cmax, mean (% CV)): 375 ng/mL
Tmax (human, plasma, 200 mg, 200 mg QD (4/1), C2D28 (n = 5), plasma): 5.6 h
half-life (human, plasma, 200 mg, 200 mg QD (4/1), C2D28 (n = 5), plasma, read-out: t½, mean (% CV) (converted)): 15.3 h
concentration at 3 h (human, plasma, 250 mg QD, 250 mg QD 4/1 (n = 6), nominal time 3 h, read-out: Mean plasma concentration following the last dose on cycle 1 day 28): 250 ng/mL
concentration at 4 h (human, plasma, 250 mg QD, 250 mg QD 4/1 (n = 6), read-out: Mean plasma concentration following the last dose on cycle 1 day 28): 200 ng/mL
concentration at 6 h (human, plasma, 250 mg QD, 250 mg QD 4/1 (n = 6), nominal time 6 h, read-out: Mean plasma concentration following the last dose on cycle 1 day 28): 157 ng/mL
concentration at 8 h (human, plasma, 250 mg QD, 250 mg QD 4/1 (n = 6), nominal time 8 h, read-out: Mean plasma concentration following the last dose on cycle 1 day 28): 161 ng/mL
concentration at 10 h (human, plasma, 250 mg QD, 250 mg QD 4/1 (n = 6), nominal time 10 h, read-out: Mean plasma concentration following the last dose on cycle 1 day 28): 141 ng/mL
concentration at 0 h (human, plasma, 250 mg, 250 mg QD 4/1 (n = 6), nominal time 0 h, read-out: Mean plasma concentration following the last dose on cycle 1 day 28): 64.5 ng/mL
concentration at 1 h (human, plasma, 250 mg, 250 mg QD 4/1 (n = 6), nominal time 1 h, read-out: Mean plasma concentration following the last dose on cycle 1 day 28): 107 ng/mL
concentration at 2 h (human, plasma, 250 mg, 250 mg QD 4/1 (n = 6), nominal time 2 h, read-out: Mean plasma concentration following the last dose on cycle 1 day 28): 177 ng/mL
concentration at 20 h (human, plasma, 250 mg, 250 mg QD 4/1 (n = 6), nominal time 20 h, read-out: Mean plasma concentration following the last dose on cycle 1 day 28): 53.6 ng/mL
concentration at 24 h (human, plasma, 250 mg, 250 mg QD 4/1 (n = 6), nominal time 24 h, read-out: Mean plasma concentration following the last dose on cycle 1 day 28): 63 ng/mL
AUC(0-t) (human, plasma, 250 mg, 250 mg QD (4/1), C1D1 (n = 6), plasma, read-out: AUC(0-24), mean (% CV)): 7580 ng·h/mL
concentration at 24 h (human, plasma, 250 mg, 250 mg QD (4/1), C1D1 (n = 6), plasma, read-out: C(trough, 24 h), mean (% CV)): 143 ng/mL
Cmax (human, plasma, 250 mg, 250 mg QD (4/1), C1D1 (n = 6), plasma, read-out: Cmax, mean (% CV)): 848 ng/mL
Tmax (human, plasma, 250 mg, 250 mg QD (4/1), C1D1 (n = 6), plasma): 3.7 h
half-life (human, plasma, 250 mg, 250 mg QD (4/1), C1D1 (n = 6), plasma, read-out: t½, mean (% CV) (converted)): 11.5 h
AUC(0-t) (human, plasma, 250 mg, 250 mg QD (4/1), C1D28 (n = 4), plasma, read-out: AUC(0-24), mean (% CV)): 9810 ng·h/mL
concentration at 24 h (human, plasma, 250 mg, 250 mg QD (4/1), C1D28 (n = 4), plasma, read-out: C(trough, 24 h), mean (% CV)): 246 ng/mL
Cmax (human, plasma, 250 mg, 250 mg QD (4/1), C1D28 (n = 4), plasma, read-out: Cmax, mean (% CV)): 734 ng/mL
Tmax (human, plasma, 250 mg, 250 mg QD (4/1), C1D28 (n = 4), plasma): 4.5 h
half-life (human, plasma, 250 mg, 250 mg QD (4/1), C1D28 (n = 4), plasma, read-out: t½, mean (% CV) (converted)): 22.4 h
concentration at 24 h (human, plasma, 250 mg, 250 mg QD (4/1), C2D28 (n = 4), plasma, read-out: C(trough, 24 h), mean (% CV)): 279 ng/mL
Cmax (human, plasma, 250 mg, 250 mg QD (4/1), C2D28 (n = 4), plasma, read-out: Cmax, mean (% CV)): 748 ng/mL
Tmax (human, plasma, 250 mg, 250 mg QD (4/1), C2D28 (n = 4), plasma): 5.5 h
half-life (human, plasma, 250 mg, 250 mg QD (4/1), C2D28 (n = 4), plasma, read-out: t½, mean (% CV) (converted)): 13.2 h
half-life (human, plasma, 4/1 schedule, blood samples for 144 hours after the last dose on Day 28, across the dose groups, read-out: longer t1/2, mean estimates): 13.2 to 26.9 h
half-life (human, plasma, C1D1, across dose groups, read-out: mean terminal plasma half-life (t1/2) over 24 hours after dosing): 10.8 to 18.8 h
concentration at 12 h (human, plasma, oral, 25 mg QD, 25 mg QD 4/1 (n = 6), read-out: Mean plasma concentration following the last dose on cycle 1 day 28): 30.1 ng/mL
concentration at 4 h (human, plasma, oral, 25 mg, 25 mg QD 4/1 (n = 6), read-out: Mean plasma concentration following the last dose on cycle 1 day 28): 58.3 ng/mL
AUC(0-t) (human, plasma, oral, 25 mg, 25 mg QD (4/1), C2D28 (n = 5), plasma, read-out: AUC(0-24), mean (% CV)): 794 ng·h/mL
concentration at 24 h (human, plasma, oral, 25 mg, 25 mg QD (4/1), C2D28 (n = 5), plasma, read-out: C(trough, 24 h), mean (% CV)): 21.4 ng/mL
AUC(0-t) (human, plasma, oral, 25 mg, one patient excluded from the mean, 25 mg QD 4/1, C2D28, read-out: AUC(0-24)): 7000 ng·h/mL
Cmax (human, plasma, oral, 25 mg, one patient excluded from the mean, 25 mg QD 4/1, C2D28, read-out: Cmax): 394 ng/mL
concentration at 12 h (human, plasma, oral, 50 mg QD, 50 mg QD 4/1 (n = 5), read-out: Mean plasma concentration following the last dose on cycle 1 day 28): 50.4 ng/mL
concentration at 4 h (human, plasma, oral, 50 mg, 50 mg QD 4/1 (n = 5), read-out: Mean plasma concentration following the last dose on cycle 1 day 28): 81.1 ng/mL
concentration at 12 h (human, plasma, oral, 100 mg QD, 100 mg QD 4/1 (n = 6), read-out: Mean plasma concentration following the last dose on cycle 1 day 28): 204 ng/mL
concentration at 12 h (human, plasma, oral, 100 mg, 100 mg QD Continuous (n = 4), read-out: Mean plasma concentration following the last dose on cycle 1 day 28): 377 ng/mL
concentration at 12 h (human, plasma, oral, 150 mg QD, 150 mg QD 4/1 (n = 5), read-out: Mean plasma concentration following the last dose on cycle 1 day 28): 91.3 ng/mL
concentration at 4 h (human, plasma, oral, 150 mg, 150 mg QD 4/1 (n = 5), read-out: Mean plasma concentration following the last dose on cycle 1 day 28): 231 ng/mL
concentration at 12 h (human, plasma, oral, 150 mg, 150 mg QD Continuous (n = 6), read-out: Mean plasma concentration following the last dose on cycle 1 day 28): 465 ng/mL
concentration at 12 h (human, plasma, oral, 200 mg, 200 mg QD 4/1 (n = 5), read-out: Mean plasma concentration following the last dose on cycle 1 day 28): 355 ng/mL
concentration at 12 h (human, plasma, oral, 250 mg, 250 mg QD 4/1 (n = 6), read-out: Mean plasma concentration following the last dose on cycle 1 day 28): 130 ng/mL
AUC(0-t) (human, plasma, oral, 250 mg, 250 mg QD (4/1), C2D28 (n = 4), plasma, read-out: AUC(0-24), mean (% CV)): 9770 ng·h/mL
half-life (human, plasma, oral, patients with solid tumors, read-out: effective t1/2 of elimination from plasma): 11 to 19 h
concentration at 1 week (human, extrapolating beyond the measured plasma concentrations at 144 hours, rest period after the last dose of Cycle 1, read-out: concentration prior to the start of dosing in the following cycle): < 5 ng/mL
higher exposures on C2D28 compared with C1D28 (one patient excluded from the mean, 25 mg QD 4/1): approximately 5 fold
accumulation of the drug with continuous dosing: no unexpected accumulation
accumulation of the drug with continuous dosing (listed as compound of formula 1): no unexpected drug accumulation
